# Key:
# VEEV = experiment: microbe, parasite or virus in culture; format: cell-based; settings: Venezuelan equine encephalitis virus, Vero 76
# RVFV = experiment: microbe, parasite or virus in culture; format: cell-based; settings: Rift Valley fever virus, Vero 76
# [1] = Parallel cytotoxicity assay in A549 cells; format: cell-based; settings: human, parallel to AdV assay
# Description: Every antiviral assay included a parallel cytotoxicity assay with the same cells used for each virus, the same cell number, the same drug concentrations, and the same incubation times to provide the same drug exposure. To ensure that the cytotoxicity of all compounds could be compared directly, a standard neutral red uptake cytotoxicity assay for all compounds in confluent HFF cells with a 7 d incubation period was performed.
# The primary screen was a cytopathic effect (CPE) reduction assay. Briefly, cultures of cells were infected with virus in the presence of test compounds and incubated for 4-7 days (depending on the specific virus/cells). […] Therefore, antiviral effect, or cytoprotection, was observed when compounds prevent virus replication. […] Cytoprotection and compound cytotoxicity were assessed by MTS dye reduction. The percent reduction in viral CPE (antiviral activity) and percent cell viability (cytotoxicity) were determined and reported.
# The primary screen was a cytopathic effect (CPE) reduction assay. […] Cytoprotection and compound cytotoxicity were assessed by MTS (CellTiter®96 Reagent, Promega, Madison Wis.) dye reduction. The percent reduction in viral CPE (antiviral activity) and percent cell viability (cytotoxicity) were determined and reported.
# HCV = experiment: microbe, parasite or virus in culture; format: cell-based; settings: Hepatitis C virus, Huh 7 cells
# Description: Luciferase reporter (Replicon)/CytoTox-1 (Toxicity). Compounds were screened for anti-HCV activity using a luciferase (Luc) reporter gene endpoint in the HCV primary assay. The Luc reporter was used as an indirect measure of HCV replication as its activity is directly proportional to HCV RNA levels. Assessment of cytotoxicity is conducted in parallel. Drug stocks were prepared in DMSO unless otherwise specified and were diluted with tissue culture medium to the desired high-test concentration. For each assay, the compounds were then further diluted in tissue culture medium as required. After incubation, the cells were processed to derive, where applicable, EC50 and EC90 (compound concentration reducing replicon replication by 50% and 90% respectively). […] Anti-HCV activity was assessed with the replicon (genotype 1b or 2a) or HCVcc virus-derived Luc activity as readout; whereas the cytotoxic concentrations of drug reducing cell numbers was assessed by the CytoTox-1 cell proliferation assay according to manufacturer's protocol. […]
# Luciferase reporter (Replicon)/CytoTox-1 (Toxicity). […] Anti-HCV activity was assessed with the replicon (genotype 1b or 2a) or HCVcc virus-derived Luc activity as readout; whereas the cytotoxic concentrations of drug reducing cell numbers was assessed by the CytoTox-1 cell proliferation assay (Promega, Madison, Wis.) according to manufacturer's protocol. […]
# VZV = experiment: Plaque-reduction assay for VZV; format: cell-based, varicella zoster virus; settings: Human alphaherpesvirus 3, HFF cells
# Description: Plaque-Reduction Assays for HSV-1, HSV-2, VZV and HCMV:
# Monolayers of cells were prepared in six-well plates and incubated at to allow the cells to reach confluency. Media was then aspirated from the wells and of virus was added to each of three wells to yield 20-30 plaques in each well. The virus was allowed to adsorb to the cells for 1 h and the plates were rocked gently every 15 min to redistribute the media. Compounds were diluted in maintenance cell culture media consisting of MEM with Earl's salts supplemented with 2% FBS, L-glutamine, penicillin, and gentamycin. Solutions were added to duplicate wells and the plates were incubated for various times, depending on the virus used. The plaque-reduction assay with HSV-1 strain F was performed in a similar manner but with Vero cells infected one day after plating. For HSV-1 and -2, the monolayers were stained with 1% crystal violet in 20% methanol and the unbound dye removed by washing with dH2O. For assays with HCMV and VZV, the cell monolayer was stained with 1% Neutral Red solution for 4 h then the stain was aspirated and the cells were washed with PBS. For all assays, plaques were enumerated using a stereomicroscope and the concentration of compound that reduced plaque formation by 50% (EC50) was interpolated from the experimental data. […]
# AdV = experiment: microbe, parasite or virus in culture; format: cell-based; settings: unidentified adenovirus, A549 cells
smiles,measurement,setting,value
"Cc1nc(N)c2c(C(N)=O)cn([C@@H]3O[C@H](CO)[C@@H](O)[C@H]3O)c2n1 [Compound 1, 4-amino-7-((2R,3R,4S,5R)-3,4-dihydroxy-5-(hydroxymethyl)tetrahydrofuran-2-yl)-2-methyl-7H-pyrrolo[2,3-d]pyrimidine-5-carboxamide]",EC50,VEEV,> 100 µM
same,EC50,RVFV,> 100 µM
same,CC50,[1],> 100 µM
same,EC50,HCV,18.4 µM
same,EC50,VZV,> 60 µM
same,EC50,AdV,> 100 µM
